Where two headings read alike, the source gives them in different places.
Columns and labels:
BVDV-1 (strain PE515) = assay: Anti-BVDV assay in MDBK cells (MTS); format: cell-based, bovine viral diarrhea virus
Experimental: Cells and viruses: Madin-Darby Bovine Kidney (MDBK) cells were maintained in Dulbecco's modified Eagle medium (DMEM) supplemented with BVDV-free 5% fetal calf serum (DMBM-FCS) at 37° C. in a humidified, 5% CO2 atmosphere. BVDV-1 (strain PE515) was used to assess the antiviral activity in MDBK cells. Vero cells (ATCC CCL81) were maintained in MEM medium supplemented with 10% inactivated calf serum, 1% L-glutamine and 0.3% bicarbonate.
Anti-BVDV assay: Ninety-six-well cell culture plates were seeded with MDBK cells in DMEM-FCS so that cells reached 24 hr later confluency. Then medium was removed and serial 5-fold dilutions of the test compounds were added in a total volume of 100 ul, after which the virus inoculum (100 ul) was added to each well. […] Uninfected cells and cells receiving virus without compound were included in each assay plate. After 5 days, medium was removed and 90 μt of DMEM-FCS and 10 ul of MTS/PMS solution (Promega) was added to each well. Following a 2 hr incubation period at 37° C. the optical density of the wells was read at 498 nm in a microplate reader.

VZV (wild-type strains) = assay: Anti-VZV assay (wild-type strains): virus-induced cytopathicity in HEL cell cultures; format: cell-based, varicella-zoster virus; settings: HEL cell cultures
HEL cells [1] = settings: read-out: CC50 (HEL); HEL cells; anti-VZV table
HEL cells [2] = settings: anti-VZV table

CCCCCCCCCCN1CCN(C(=O)C2NC(=O)C3NC(=O)C(NC(=O)C4NC(=O)C5NC(=O)C(Cc6ccc(c(Cl)c6)Oc6cc4cc(c6O)Oc4ccc(cc4Cl)C3O)NC(=O)C(N)c3ccc(O)c(c3)Oc3cc(O)cc5c3)c3ccc(O)c(c3)-c3c(O)cc(O)cc32)CC1 (stereo not shown) [Compound 126]
MTC (MDBK) (MDBK cells): 60 | activity against BVDV (BVDV-1 (strain PE515)): activity | EC50 (BVDV-1 (strain PE515); MDBK cells): 12 µM | EC50 (VZV (wild-type strains); VZV strain OKA, read-out: EC50 VZV (OKA)): 1 µM | EC50 (VZV (wild-type strains); VZV strain YS, read-out: EC50 VZV (YS)): 0.3 µM | CC50 (HEL cells [1]): > 50 µM | MTC (HEL) (HEL cells [2]): >5 to 50 µM
